{"source": "patent EP4137133A1", "about": "“CRYSTALLINE FORM OF AVACOPAN” (Sandoz AG, priority 2021, dated 2023)", "key": {"[1]": {"experiment": "Powder dissolution of crystalline avacopan forms in 0.1N HCl", "assay_type": "physicochemical", "conditions": "37°C; for Concentration: HPLC 243 nm", "method": "Powder dissolution experiments were carried out in 0.1N HCl at 37°C for the crystalline form of avacopan disclosed in WO 2021/092292 A1 and the crystalline Form HyA of avacopan of the present invention. Particle sizes of the forms were kept as similar as possible to allow for proper comparison. The respective concentrations were determined by HPLC at a wavelength of 243 nm."}, "[2]": {"experiment": "Gravimetric moisture sorption (GMS)", "assay_type": "physicochemical", "conditions": "25 ± 0.1 °C", "method": "Moisture sorption isotherms were recorded with an SPSx-1µ moisture sorption analyzer (ProUmid, Ulm) together with other samples. The measurement cycle was started at ambient relative humidity (RH) of 40%. RH was then decreased to 5% in 5% steps, followed by a further decrease to 3% and to 0%. […] Finally, RH was increased to ambient relative humidity of […] in 5% steps. The time per step was set to a minimum of 2 hours and a maximum of 6 hours. If an equilibrium condition with a constant mass of ± 0.01% within 1 hour was reached before the maximum time for all examined samples the sequential humidity step was applied before the maximum time of 6 hours. If no equilibrium was achieved the consecutive humidity step was applied after the maximum time of 6 hours. The temperature was 25 ± 0.1 °C."}}}
{"molecule": "Cc1ccc(NC(=O)[C@H]2CCCN(C(=O)c3c(C)cccc3F)[C@H]2c2ccc(NC3CCCC3)cc2)cc1C(F)(F)F", "note": "[Form HyA, (2R,3S)-2-(4-(cyclopentylamino)phenyl)-1-(2-fluoro-6-methylbenzoyl)-N-(4-methyl-3-(trifluoromethyl)phenyl)piperidine-3-carboxamide]", "values": [{"measurement": "Concentration", "setting": "[1]; time 0 h", "value": 0, "unit": "ng/mL"}, {"measurement": "Concentration", "setting": "[1]; time 0.25 h, listed as Form HyA of present invention", "value": 72000, "unit": "ng/mL"}, {"measurement": "Concentration", "setting": "[1]; time 0.5 h, listed as Form HyA of present invention", "value": 68000, "unit": "ng/mL"}, {"measurement": "Concentration", "setting": "[1]; time 0.75 h, listed as Form HyA of present invention", "value": 60000, "unit": "ng/mL"}, {"measurement": "Concentration", "setting": "[1]; time 1 h, listed as Form HyA of present invention", "value": 52000, "unit": "ng/mL"}, {"measurement": "Concentration", "setting": "[1]; time 1.25 h, listed as Form HyA of present invention", "value": 43000, "unit": "ng/mL"}, {"measurement": "Concentration", "setting": "[1]; time 1.5 h, listed as Form HyA of present invention", "value": 40000, "unit": "ng/mL"}, {"measurement": "Concentration", "setting": "[1]; time 1.75 h, listed as Form HyA of present invention", "value": 36000, "unit": "ng/mL"}, {"measurement": "Concentration", "setting": "[1]; time 2 h, listed as Form HyA of present invention", "value": 35000, "unit": "ng/mL"}, {"measurement": "solubility in 0.1N HCl compared to the crystalline form of avacopan disclosed in WO 2021/092292 A1", "setting": "[1]; whole range from 15 minutes to 2 hours", "value": "significantly increased solubility"}, {"measurement": "mass change (0-15% RH)", "setting": "[2]; GMS, 0-15% RH", "value": 2.2, "unit": "w-%"}, {"measurement": "mass change (0-90%RH)", "setting": "[2]; GMS, 0-90% RH", "value": 3.2, "unit": "w-%"}, {"measurement": "mass change (15-90%)", "setting": "[2]; GMS, 15-90% RH", "value": 1.0, "unit": "w-%"}, {"measurement": "hygroscopicity", "setting": "[2]; GMS, range of 15-90% RH", "value": "slightly hygroscopic"}, {"measurement": "mass change", "setting": "[2]; GMS, range of 15-90% RH", "value": 1.0, "unit": "%"}, {"measurement": "water released", "setting": "[2]; GMS, very dry conditions, below 15-0% RH", "value": 2.2, "unit": "%"}, {"measurement": "PXRD after the GMS experiment (physical stability)", "setting": "[2]; after sorption/desorption cycles 0-90% RH", "value": "still shows the same PXRD"}]}
{"molecule": "Cc1ccc(NC(=O)[C@H]2CCCN(C(=O)c3c(C)cccc3F)[C@H]2c2ccc(NC3CCCC3)cc2)cc1C(F)(F)F", "note": "[Crystalline Form of WO 2021/092292 A1, (2R,3S)-2-(4-(cyclopentylamino)phenyl)-1-(2-fluoro-6-methylbenzoyl)-N-(4-methyl-3-(trifluoromethyl)phenyl)piperidine-3-carboxamide, reference compound]", "values": [{"measurement": "Concentration", "setting": "[1]; time 0.25 h", "value": 4000, "unit": "ng/mL"}, {"measurement": "Concentration", "setting": "[1]; time 0.5 h", "value": 6000, "unit": "ng/mL"}, {"measurement": "Concentration", "setting": "[1]; time 0.75 h", "value": 6000, "unit": "ng/mL"}, {"measurement": "Concentration", "setting": "[1]; time 1 h", "value": 7000, "unit": "ng/mL"}, {"measurement": "Concentration", "setting": "[1]; time 1.25 h", "value": 7000, "unit": "ng/mL"}, {"measurement": "Concentration", "setting": "[1]; time 1.5 h", "value": 8000, "unit": "ng/mL"}, {"measurement": "Concentration", "setting": "[1]; time 1.75 h", "value": 8000, "unit": "ng/mL"}, {"measurement": "Concentration", "setting": "[1]; time 2 h", "value": 8000, "unit": "ng/mL"}]}
